The results in this text go back to patent publication US12187742B2 (XRAD Therapeutics, Inc., priority 2018, dated 2025).

For orientation: IC50 means the concentration that gives 50% inhibition. A higher IC50 goes with lower potency.

The target of assay [1] is ATM (Homo sapiens (Human), UniProt Q13315). In words: ATM in Cell Western Assay (pKAP1 in etoposide-treated MCF-7 cells). The class given is cell-based. In short, it runs like this:
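Cells received compounds in a 10-dose, 3-fold series from a 1 μM final top concentration, then 100 μM etoposide, for 1 hr at 37° C. They were then fixed with paraformaldehyde and permeabilized with 0.1% Triton X-100. After immunostaining, plates were scanned on an infrared imager.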

The target in assay [2] is DNA-PK (Homo sapiens (Human), UniProt P78527). In words: DNA-PK Enzyme-Linked Immunosorbent Assay (phosphorylation of GST-p53 (1-101) peptide). The assay is classed as biochemical. Conditions: ELISA. The protocol: Assay of Compounds ATM and DNA-PK Inhibition
remove wash solution, turn plate upside down onto a thin paper towel and centrifuge at 1000 rpm for 1 min to absorb all wash buffer. Clean the bottom of plate with moist lint free paper. Scan plate immediately using ODYSSEY CLx (LI-COR) for the best results. DNA-PK Enzyme-Linked Immunosorbent Assay:
On day one, coat 96-well plate (ThermoFisher. Cat #: 442404) with GST-p53 (1-101) peptide (purified by Pharmaron, BCS department) by diluting 3 μg of GST-p53 each well with 0.1 M Na2CO3/NaHCO3, pH 9.6. Incubate the plate overnight at 4° C. The second day, remove coating buffer, wash 2× with PBST (1×PBS containing 0.1% Tween-20). Then add DNA-PK enzyme solution (Invitrogen, #PR9107A; the final DNA-PK concentration is 0.1 μg/mL), series dilution compounds (the final top concentration is 100 nM, 3 fold series dilution, with total 10 doses) and ATP solution (the final ATP concentration is 20 μM) to the 96-well plate. Incubate the plate at 25° C. for 1 hour. Then wash 3× with PBST (1×PBS containing 0.1% Tween-20). Block the plate with PBST+ 1% BSA at 4° C. overnight. The third day, wash 4× with PBST (1×PBS containing 0.1% Tween-20). Then add Phospho-p53 primary antibody (cell signaling Technology, #9286, Phospho-p53 (Ser15) (16G8) Mouse mAb) (1/1000) to each well. Seal with plate and incubate the plate for 1 h at 37° C. Wash 4× with PBST (1×PBS containing 0.1% Tween-20), add 100 μL of HRP-linked secondary antibody (Cell signaling Technology, #7076, Anti-mouse IgG, HRP-linked Antibody) (1/1000) to each well. Seal with tape and incubate the plate for 30 min at 37° C. Wash 4× with PBST (1×PBS containing 0.1% Tween-20), add 100 μL of TMB (Cell signaling Technology, #7004) substrate to each well. Seal with tape and incubate the plate for 10 min at 37° C. Then add 100 μL of Stop solution (Cell signaling Technology, #7002) to each well. Read the plate at 450 nm to detect absorption.
For orientation: ELISA stands for enzyme-linked immunosorbent assay.

Where [3] appears, read: MCF-7 cells, etoposide 100 μM, 1 hr, pKAP1 readout.
Where [4] appears, read: pKAP1 in etoposide-treated MCF-7 cells.

Counter-ions that a name gives are not always drawn.

ATM, sequence (Q13315 whole entry): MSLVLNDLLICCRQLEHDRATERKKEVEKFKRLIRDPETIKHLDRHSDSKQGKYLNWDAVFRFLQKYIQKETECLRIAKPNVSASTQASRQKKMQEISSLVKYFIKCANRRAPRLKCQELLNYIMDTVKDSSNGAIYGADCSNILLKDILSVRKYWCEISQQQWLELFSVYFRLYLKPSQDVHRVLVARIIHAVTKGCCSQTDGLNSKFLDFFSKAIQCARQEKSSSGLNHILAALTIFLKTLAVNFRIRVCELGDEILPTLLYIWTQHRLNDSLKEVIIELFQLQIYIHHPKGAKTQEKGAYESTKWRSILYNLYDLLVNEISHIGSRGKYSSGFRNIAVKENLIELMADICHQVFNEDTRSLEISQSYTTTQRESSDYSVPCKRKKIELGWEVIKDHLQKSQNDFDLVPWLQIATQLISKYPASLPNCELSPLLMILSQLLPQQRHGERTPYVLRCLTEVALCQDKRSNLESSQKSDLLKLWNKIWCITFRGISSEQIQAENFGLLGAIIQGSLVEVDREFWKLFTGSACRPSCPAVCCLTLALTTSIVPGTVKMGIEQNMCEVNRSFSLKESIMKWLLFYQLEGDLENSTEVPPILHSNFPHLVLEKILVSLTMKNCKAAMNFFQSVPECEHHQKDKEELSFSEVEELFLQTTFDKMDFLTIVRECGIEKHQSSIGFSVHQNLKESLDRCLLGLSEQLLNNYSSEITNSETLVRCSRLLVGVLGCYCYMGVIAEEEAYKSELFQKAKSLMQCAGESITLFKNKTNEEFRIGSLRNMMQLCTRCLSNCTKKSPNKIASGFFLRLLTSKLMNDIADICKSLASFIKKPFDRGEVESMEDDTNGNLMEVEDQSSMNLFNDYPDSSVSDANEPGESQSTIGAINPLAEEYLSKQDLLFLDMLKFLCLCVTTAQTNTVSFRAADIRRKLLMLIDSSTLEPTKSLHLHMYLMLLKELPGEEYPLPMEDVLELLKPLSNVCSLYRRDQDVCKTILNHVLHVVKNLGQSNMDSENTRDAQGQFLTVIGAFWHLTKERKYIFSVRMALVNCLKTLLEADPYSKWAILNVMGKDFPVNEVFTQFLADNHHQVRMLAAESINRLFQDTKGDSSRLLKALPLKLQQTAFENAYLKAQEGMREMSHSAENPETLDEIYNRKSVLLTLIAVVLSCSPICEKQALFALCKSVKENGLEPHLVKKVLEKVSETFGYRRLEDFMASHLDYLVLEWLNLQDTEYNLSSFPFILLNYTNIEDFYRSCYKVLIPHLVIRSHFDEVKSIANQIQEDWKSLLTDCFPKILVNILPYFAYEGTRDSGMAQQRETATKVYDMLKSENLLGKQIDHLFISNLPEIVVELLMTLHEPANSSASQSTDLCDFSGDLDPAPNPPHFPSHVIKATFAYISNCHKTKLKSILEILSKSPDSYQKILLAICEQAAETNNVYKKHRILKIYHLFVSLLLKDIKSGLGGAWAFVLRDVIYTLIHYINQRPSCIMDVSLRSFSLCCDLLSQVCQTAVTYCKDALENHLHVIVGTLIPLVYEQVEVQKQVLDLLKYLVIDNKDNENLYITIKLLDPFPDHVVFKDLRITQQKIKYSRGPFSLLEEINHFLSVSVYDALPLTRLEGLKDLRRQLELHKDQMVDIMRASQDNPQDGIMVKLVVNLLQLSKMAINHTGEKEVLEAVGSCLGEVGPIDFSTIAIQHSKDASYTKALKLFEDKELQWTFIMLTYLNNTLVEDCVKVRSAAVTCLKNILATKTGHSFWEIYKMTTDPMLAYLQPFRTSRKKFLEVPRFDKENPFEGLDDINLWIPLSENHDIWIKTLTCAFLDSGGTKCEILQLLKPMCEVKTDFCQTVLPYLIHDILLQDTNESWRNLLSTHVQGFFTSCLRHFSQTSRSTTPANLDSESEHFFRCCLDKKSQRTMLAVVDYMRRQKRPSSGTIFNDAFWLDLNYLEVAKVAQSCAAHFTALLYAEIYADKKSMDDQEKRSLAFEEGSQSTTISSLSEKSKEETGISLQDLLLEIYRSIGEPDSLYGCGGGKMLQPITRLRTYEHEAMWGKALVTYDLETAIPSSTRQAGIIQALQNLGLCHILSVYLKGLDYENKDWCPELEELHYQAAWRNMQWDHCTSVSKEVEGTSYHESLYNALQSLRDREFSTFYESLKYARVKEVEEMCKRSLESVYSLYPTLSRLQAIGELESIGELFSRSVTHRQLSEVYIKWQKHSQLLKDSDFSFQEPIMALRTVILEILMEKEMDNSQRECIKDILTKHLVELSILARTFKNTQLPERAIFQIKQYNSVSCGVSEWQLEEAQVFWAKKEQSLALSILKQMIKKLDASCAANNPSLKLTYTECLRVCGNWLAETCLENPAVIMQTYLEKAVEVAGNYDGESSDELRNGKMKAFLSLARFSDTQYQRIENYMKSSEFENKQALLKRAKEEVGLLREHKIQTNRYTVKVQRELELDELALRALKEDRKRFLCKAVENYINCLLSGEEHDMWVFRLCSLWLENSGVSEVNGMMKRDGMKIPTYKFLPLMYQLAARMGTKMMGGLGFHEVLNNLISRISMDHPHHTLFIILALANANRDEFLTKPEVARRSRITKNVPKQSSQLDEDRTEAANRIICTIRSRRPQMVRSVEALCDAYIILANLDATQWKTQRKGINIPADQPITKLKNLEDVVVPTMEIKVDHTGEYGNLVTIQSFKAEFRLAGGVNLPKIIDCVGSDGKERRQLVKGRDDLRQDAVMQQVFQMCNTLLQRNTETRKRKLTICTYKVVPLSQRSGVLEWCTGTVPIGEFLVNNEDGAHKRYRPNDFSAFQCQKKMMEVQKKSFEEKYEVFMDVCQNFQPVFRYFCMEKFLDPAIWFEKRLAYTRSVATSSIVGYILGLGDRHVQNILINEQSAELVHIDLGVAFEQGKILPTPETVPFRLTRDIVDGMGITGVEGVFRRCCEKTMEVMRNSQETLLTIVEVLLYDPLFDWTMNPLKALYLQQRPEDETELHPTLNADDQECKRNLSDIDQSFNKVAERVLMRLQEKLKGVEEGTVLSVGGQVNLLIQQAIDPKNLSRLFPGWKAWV

As for `CN(C)CCCOc1ncc(-c2ccc3ncc4c(c3c2F)C2(CCC2)C(=O)N4C)cc1NS(C)(=O)=O` [Example 268, N-(2-(3-(Dimethylamino)propoxy)-5-(9′-fluoro-3′-methyl-2′-oxo-2′,3′-dihydrospiro[cyclobutane-1,1′-pyrrolo[2,3-c]quinolin]-8′-yl)pyridin-3-yl)methanesulfonamide], the IC50 in assay [1] (setting [3]) and in assay [2] (ATP 20 μM) was 1 to 100 nM each time.
Turning to `CCN(C)S(=O)(=O)Nc1cc(-c2ccc3ncc4c(c3c2)C2(CCC2)C(=O)N4C)cnc1OCCCN1CCCCC1` [Example 222, 8′-(5-{[Ethyl(methyl)sulfamoyl]amino}-6-[3-(piperidin-1-yl)propoxy]pyridin-3-yl)-3′-methyl-2′,3′-dihydrospiro [cyclobutane-1,1′-pyrrolo[2,3-c]quinoline]-2′-one], the IC50 in assay [1] (setting [3]) and in assay [2] (ATP 20 μM) was 1 to 100 nM throughout.
In the case of `CC1CCN(S(=O)(=O)Nc2cc(-c3ccc4ncc5c(c4c3)C3(CCC3)C(=O)N5C)cnc2OCCCN(C)C)CC1` [Example 165, N-(2-(3-(Dimethylamino)propoxy)-5-(3′-methyl-2′-oxo-2′,3′-dihydrospiro[cyclobutane-1,1′-pyrrolo[2,3-c]quinolin]-8′-yl)pyridin-3-yl)-4-methylpiperidine-1-sulfonamide], the 50% inhibitory concentration (IC50) in assay [1] (setting [3]) and in assay [2] (ATP 20 μM) was 1 to 100 nM in each case.
For `CC(C)NCCOc1ncc(-c2cc3c4c(cnc3cc2F)N(C)C(=O)C42CN(c3ccc(C(C)C)cc3)C2)cc1NS(C)(=O)=O` [Example 530, N-(5-(7′-Fluoro-1-(4-isopropylphenyl)-3 methyl-2′-oxo-2′,3′-dihydrospiro [azetidine-3,1′-pyrrolo[2,3-c]quinolin]-8′-yl)-2-(2-(isopropylamino)ethoxy)pyridin-3-yl)methanesulfonamide], the IC50 in assay [1] (setting [4]) lay within 1 to 100 nM; in assay [2] (20 μM ATP), 0.5 to 1 nM.
Take `CN(C)CCCOc1ncc(-c2ccc3ncc4c(c3c2)C2(CCC2)C(=O)N4C)cc1NS(=O)(=O)CCN` [Example 223, 2-Amino-N-(2-(3-(dimethylamino)propoxy)-5-(3′-methyl-2′-oxo-2′,3′-dihydrospiro[cyclobutane-1,1′-pyrrolo[2,3-c]quinolin]-8′-yl)pyridin-3-yl)ethane-1-sulfonamide]: the half-inhibitory concentration (IC50) in assay [1] (setting [3]) is 1 to 100 nM; in assay [2] (ATP 20 μM), under 0.5 nM.
For `CN(C)CCCOc1ncc(-c2ccc3ncc4c(c3c2)C2(CCC2)C(=O)N4C)cc1NS(=O)(=O)c1cnn(C)c1` [Example 166, N-(2-(3-(Dimethylamino)propoxy)-5-(3′-methyl-2′-oxo-2′,3′-dihydrospiro [cyclobutane-1,1′-pyrrolo [2,3-c]quinolin]-8′-yl)pyridin-3-yl)-1-methyl-1H-pyrazole-4-sulfonamide hydrochloride], the concentration for half-maximal inhibition (IC50) in assay [1] (setting [3]) and in assay [2] (ATP 20 μM) was 1 to 100 nM each time.
Regarding `COc1ncc(-c2ccc3ncc4c(c3c2)C2(CC2)C(=O)N4C)cc1NS(=O)(=O)c1cccc(C(C)=O)c1` [Example 13, 3-Acetyl-N-(2-methoxy-5-(3′-methyl-2′-oxo-2′,3′-dihydrospiro [cyclopropane-1,1′-pyrrolo[2,3-c]quinolin]-8′-yl)pyridin-3-yl)benzenesulfonamide], the IC50 was 1 to 100 nM in assay [1] (setting [3]) and under 0.5 nM in assay [2] (ATP 20 μM).
Turning to `CC(C)NCCOc1ncc(-c2cc3c(cc2F)ncc2c3[C@]3(C[C@H](C)C3)C(=O)N2C)cc1NS(C)(=O)=O` [Example 448, cis-N-(5-(7′-Fluoro-3,3′-dimethyl-2′-oxo-2′,3′-dihydrospiro[cyclobutane-1,1′-pyrrolo[2,3-c]quinolin]-8′-yl)-2-(2-(isopropylamino)ethoxy)pyridin-3-yl)methanesulfonamide], the half-maximal inhibitory concentration (IC50) in assay [1] (setting [4]) and in assay [2] (20 μM ATP) was 1 to 100 nM throughout.
In the case of `CN1C(=O)C2(CCC2)c2c1cnc1ccc(-c3cnc(OCCCN4CCOCC4)c(NS(=O)(=O)N(C)C)c3)cc21` [Example 304, 8′-{5-[(Dimethylsulfamoyl)amino]-6-[3-(morpholin-4-yl)propoxy]pyridin-3-yl)-3′-methyl-2′,3′-dihydrospiro[cyclobutane-1,1′-pyrrolo[2,3-c]quinoline]-2′-one], the half-inhibitory concentration (IC50) in assay [1] (setting [3]) was 1 to 100 nM; in assay [2] (ATP 20 μM), 0.5 to 1 nM.
As to `COC1CCCN(CCCOc2ncc(-c3ccc4ncc5c(c4c3)C3(CCC3)C(=O)N5C)cc2NS(C)(=O)=O)C1` (stereo not drawn) [Example 280, N-(2-(3-(3-Methoxypiperidin-1-yl)propoxy)-5-(3′-methyl-2′-oxo-2′,3′-dihydrospiro[cyclobutane-1,1′-pyrrolo[2,3-c]quinolin]-8′-yl)pyridin-3-yl)methanesulfonamide], the IC50 in assay [1] (setting [3]) lay within 1 to 100 nM; in assay [2] (ATP 20 μM), 0.5 to 1 nM.
On to `CC(C)NCCOc1ncc(-c2cc3c4c(cnc3cc2F)N(C)C(=O)C42CCC2)cc1NS(=O)(=O)CCN(C)C` [Example 375, 2-(Dimethylamino)-N-(5-(7′-fluoro-3′-methyl-2′-oxo-2′,3′-dihydrospiro[cyclobutane-1,1′-pyrrolo[2,3-c]quinolin]-8′-yl)-2-(2-(isopropylamino)ethoxy)pyridin-3-yl)ethane-1-sulfonamide hydrochloride], for which the 50% inhibitory concentration (IC50) in assay [1] (setting [4]) and in assay [2] (20 μM ATP) was 1 to 100 nM throughout.
`CN(C)CCCOc1ncc(-c2ccc3ncc4c(c3c2)C2(CCC2)C(=O)N4C)cc1NS(=O)(=O)c1cncc(Cl)c1` [Example 130, 5-Chloro-N-(2-(3-(dimethylamino)propoxy)-5-(3′-methyl-2′-oxo-2′,3′-dihydrospiro[cyclobulane-1,1′-pyrrolo[2,3-c]quinolin]-8′-yl)pyridin-3-ylpyridine-3-sulfonamide hydrochloride]: the IC50 in assay [1] (setting [3]) and in assay [2] (ATP 20 μM) was 1 to 100 nM each time.
In the case of `CCN(C)S(=O)(=O)Nc1cc(-c2ccc3ncc4c(c3c2)C2(CCC2)C(=O)N4C)cnc1N1CC(N(C)C)C1` [Example 339, 8′-{6-[3-(Dimethylamino)azetidin-1-yl]-5-{[ethyl(methyl)sulfamoyl]amino}pyridin-3-yl}-3′-methyl-2′,3′-dihydrospiro [cyclobutane-1,1′-pyrrolo[2,3-c]quinoline]-2′-one], the IC50 in assay [1] (setting [4]) and in assay [2] (20 μM ATP) was 1 to 100 nM in each case.
Turning to `COc1ncc(-c2ccc3ncc4c(c3c2)C2(COC2)C(=O)N4C)cc1NS(=O)(=O)c1ccccc1` [Example 8, N-(2-Methoxy-5-(3′-methyl-2′-oxo-2′,3′-dihydrospiro[oxetane-3,1′-pyrrolo[2,3-c]quinolin]-8′-yl)pyridin-3-yl)benzenesulfonamide], the half-maximal inhibitory concentration (IC50) in assay [1] (setting [3]) is 1 to 100 nM; in assay [2] (ATP 20 μM) it was under 0.5 nM.
Take `CN(C)CCCOc1ncc(-c2ccc3ncc4c(c3c2)C2(CCC2)C(=O)N4C)cc1NS(=O)(=O)C1CCC1` [Example 253, N-(2-(3-(Dimethylamino)propoxy)-5-(3′-methyl-2′-oxo-2′,3′-dihydrospiro [cyclobutane-1,1′-pyrrolo[2,3-c]quinolin]-8′-yl)pyridin-3-yl) cyclobutanesulfonamide]: the IC50 in assay [1] (setting [3]) and in assay [2] (ATP 20 μM) was 1 to 100 nM throughout.
In the case of `CC(C)NCCOc1ncc(-c2cc3c4c(cnc3cc2F)N(C)C(=O)C42CCC2)cc1NS(=O)(=O)N1CCOCC1` [Example 373, N-(5-(7′-Fluoro-3′-methyl-2′-oxo-2′,3′-dihydrospiro [cyclobutane-1,1′-pyrrolo [2,3-c]quinolin]-8′-yl)-2-(2-(isopropylamino)ethoxy)pyridin-3-yl)morpholine-4-sulfonamide hydrochloride], the IC50 in assay [1] (setting [4]) and in assay [2] (20 μM ATP) was 1 to 100 nM throughout.
Take `CC(C)NCCOc1ncc(-c2cc3c(cc2F)ncc2c3[C@]3(C[C@H](N(C)c4ccccc4)C3)C(=O)N2C)cc1NS(C)(=O)=O` [Example 463, cis-N-(5-(7′-Fluoro-3′-methyl-3-(methyl(phenyl)amino)-2′-oxo-2′,3′-dihydrospiro[cyclobutane-1,1′-pyrrolo[2,3-c]quinolin]-8′-yl)-2-(2-(isopropylamino)ethoxy)pyridin-3-yl)methanesulfonamide]: the concentration for half-maximal inhibition (IC50) in assay [1] (setting [4]) is 1 to 100 nM; in assay [2] (20 μM ATP) it was under 0.5 nM.
On to `CN(C)CCCOc1ncc(-c2ccc3ncc4c(c3c2)C2(CC2)C(=O)N4C)cc1NS(=O)(=O)c1ccn(C)n1` [Example 112, N-(2-(3-(Dimethylamino)propoxy)-5-(3′-methyl-2′-oxo-2′,3′-dihydrospiro[cyclopropane-1,1′-pyrrolo[2,3-c]quinolin]-8′-yl)pyridin-3-yl)-1-methyl-1H-pyrazole-3-sulfonamide], for which the half-maximal inhibitory concentration (IC50) in assay [1] (setting [3]) is 1 to 100 nM; in assay [2] (ATP 20 μM), under 0.5 nM.
